Legend:
Mer = target: T1, Mer (Homo sapiens, UniProt Q12866); experiment: LanthaScreen Eu kinase binding assay, Mer; settings: Tracer 236
T1 construct: purchased Life Technologies
T1 sequence (Q12866 21-999): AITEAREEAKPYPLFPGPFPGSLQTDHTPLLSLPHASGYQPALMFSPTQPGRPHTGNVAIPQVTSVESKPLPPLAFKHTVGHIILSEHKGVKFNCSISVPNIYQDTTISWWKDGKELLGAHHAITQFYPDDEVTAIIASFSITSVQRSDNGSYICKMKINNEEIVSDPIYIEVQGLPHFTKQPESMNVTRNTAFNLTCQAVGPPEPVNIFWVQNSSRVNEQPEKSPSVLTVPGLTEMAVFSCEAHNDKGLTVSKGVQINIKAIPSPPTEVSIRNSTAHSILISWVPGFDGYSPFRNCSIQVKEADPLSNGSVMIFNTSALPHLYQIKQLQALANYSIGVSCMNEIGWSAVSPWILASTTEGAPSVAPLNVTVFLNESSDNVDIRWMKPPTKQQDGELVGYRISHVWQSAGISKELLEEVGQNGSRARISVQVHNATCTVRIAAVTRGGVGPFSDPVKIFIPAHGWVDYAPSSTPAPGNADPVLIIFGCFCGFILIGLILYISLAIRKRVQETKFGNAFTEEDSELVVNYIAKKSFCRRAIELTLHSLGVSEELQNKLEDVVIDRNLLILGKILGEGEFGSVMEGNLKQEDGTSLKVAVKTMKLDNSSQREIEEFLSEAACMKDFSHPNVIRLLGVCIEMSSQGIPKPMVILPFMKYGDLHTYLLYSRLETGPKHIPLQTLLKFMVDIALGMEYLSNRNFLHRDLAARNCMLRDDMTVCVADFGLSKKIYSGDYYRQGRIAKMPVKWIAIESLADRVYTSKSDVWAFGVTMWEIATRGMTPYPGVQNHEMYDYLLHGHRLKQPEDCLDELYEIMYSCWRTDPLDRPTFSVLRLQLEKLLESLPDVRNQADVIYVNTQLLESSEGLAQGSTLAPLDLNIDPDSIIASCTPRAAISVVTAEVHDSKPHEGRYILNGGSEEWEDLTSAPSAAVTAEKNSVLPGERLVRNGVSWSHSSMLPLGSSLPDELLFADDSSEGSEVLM

TYRO3 = target: T2, TYRO3 (Homo sapiens, UniProt Q06418); experiment: LanthaScreen Eu kinase binding assay, TYRO3; settings: Tracer 236
T2 construct: purchased Life Technologies
T2 sequence (Q06418 41-890): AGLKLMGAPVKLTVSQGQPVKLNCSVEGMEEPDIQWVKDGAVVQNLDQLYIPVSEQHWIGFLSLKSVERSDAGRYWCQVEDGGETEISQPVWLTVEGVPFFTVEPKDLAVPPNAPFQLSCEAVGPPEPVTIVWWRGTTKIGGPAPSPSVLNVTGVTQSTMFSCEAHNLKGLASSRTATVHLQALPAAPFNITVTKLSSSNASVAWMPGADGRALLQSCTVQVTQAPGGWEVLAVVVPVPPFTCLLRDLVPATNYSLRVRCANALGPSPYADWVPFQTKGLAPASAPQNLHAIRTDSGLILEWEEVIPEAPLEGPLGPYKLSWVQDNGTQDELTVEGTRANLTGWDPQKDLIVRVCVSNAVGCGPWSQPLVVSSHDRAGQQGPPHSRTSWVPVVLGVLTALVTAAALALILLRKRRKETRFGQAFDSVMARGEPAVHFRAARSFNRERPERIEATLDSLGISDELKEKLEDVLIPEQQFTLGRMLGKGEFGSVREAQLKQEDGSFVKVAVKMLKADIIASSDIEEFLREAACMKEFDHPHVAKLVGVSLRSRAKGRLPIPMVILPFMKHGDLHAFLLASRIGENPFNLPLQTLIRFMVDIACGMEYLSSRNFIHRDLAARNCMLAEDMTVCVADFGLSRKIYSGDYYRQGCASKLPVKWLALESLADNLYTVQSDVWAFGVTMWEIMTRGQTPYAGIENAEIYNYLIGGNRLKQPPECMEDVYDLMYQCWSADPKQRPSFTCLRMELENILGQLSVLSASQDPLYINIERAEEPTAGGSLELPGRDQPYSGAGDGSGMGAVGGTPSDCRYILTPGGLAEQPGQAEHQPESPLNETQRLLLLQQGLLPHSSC

Met = target: T3, Met (Homo sapiens, UniProt P08581); experiment: LanthaScreen Eu kinase binding assay, Met; settings: Tracer 236, read-out: cMet kinase binding activity (Kd)
T3 construct: purchased Life Technologies
T3 sequence (P08581 25-1390): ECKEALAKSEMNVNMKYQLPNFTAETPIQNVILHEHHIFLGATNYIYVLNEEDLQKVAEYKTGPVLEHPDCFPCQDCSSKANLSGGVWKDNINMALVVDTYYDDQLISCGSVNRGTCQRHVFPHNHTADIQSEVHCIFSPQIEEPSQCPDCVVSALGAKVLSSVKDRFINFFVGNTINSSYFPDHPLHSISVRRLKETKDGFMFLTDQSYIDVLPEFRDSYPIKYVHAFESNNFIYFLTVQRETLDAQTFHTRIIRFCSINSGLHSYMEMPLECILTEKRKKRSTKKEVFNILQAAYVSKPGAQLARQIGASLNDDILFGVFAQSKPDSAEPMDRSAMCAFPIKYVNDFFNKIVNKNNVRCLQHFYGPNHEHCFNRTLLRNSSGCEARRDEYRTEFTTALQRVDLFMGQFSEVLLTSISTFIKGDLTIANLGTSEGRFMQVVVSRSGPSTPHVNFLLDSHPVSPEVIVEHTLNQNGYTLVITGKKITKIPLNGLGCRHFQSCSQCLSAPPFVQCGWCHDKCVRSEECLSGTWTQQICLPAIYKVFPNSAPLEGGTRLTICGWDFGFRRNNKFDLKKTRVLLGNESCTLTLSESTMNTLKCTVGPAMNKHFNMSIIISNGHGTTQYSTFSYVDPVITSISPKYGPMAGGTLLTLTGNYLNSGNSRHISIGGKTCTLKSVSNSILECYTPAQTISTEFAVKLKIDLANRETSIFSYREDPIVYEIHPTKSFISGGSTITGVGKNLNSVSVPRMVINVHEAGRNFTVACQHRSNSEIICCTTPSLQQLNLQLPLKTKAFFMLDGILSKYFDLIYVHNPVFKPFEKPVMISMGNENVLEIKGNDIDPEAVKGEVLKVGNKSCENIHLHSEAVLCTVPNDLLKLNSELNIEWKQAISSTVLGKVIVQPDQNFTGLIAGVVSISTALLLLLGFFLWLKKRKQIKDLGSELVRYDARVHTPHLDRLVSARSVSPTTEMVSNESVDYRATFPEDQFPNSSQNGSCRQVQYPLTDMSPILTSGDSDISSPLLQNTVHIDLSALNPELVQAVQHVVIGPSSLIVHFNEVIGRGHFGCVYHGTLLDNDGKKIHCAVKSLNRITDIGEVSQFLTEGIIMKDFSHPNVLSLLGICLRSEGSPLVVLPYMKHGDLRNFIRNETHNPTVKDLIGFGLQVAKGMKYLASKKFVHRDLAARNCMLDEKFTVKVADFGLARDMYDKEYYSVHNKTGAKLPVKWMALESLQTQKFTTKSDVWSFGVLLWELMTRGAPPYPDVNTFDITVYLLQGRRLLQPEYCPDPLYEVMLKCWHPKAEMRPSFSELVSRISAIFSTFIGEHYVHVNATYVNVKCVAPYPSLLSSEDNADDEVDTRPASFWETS

[1] = system: Axl phosphorylation in transiently transfected HEK293T cells; experiment: Cellular Axl phosphorylation assay; type: cell-based; settings: Homo sapiens, HEK-293T; HEK293T cells transfected with Axl, 1 hour compound treatment, Phospho-Axl vs Total-Axl
Source text: Cell AXL Inhibition Assay Principle
The assay is based on the measurement of the relative amounts of Total-Axl and Phosphorylated-Axl in whole cell lysates of transiently transfected HEK293T cells. This assay is based on application of the Mesoscale western blot and subsequent electro-chemiluminescence detection. Overexpression of Axl-RTK (Receptor tyrosine kinase) by transfection leads to an increase in Axl-trans-autophosphorylation events. Upon compound treatment, the correlation of the measured values of Phosphorylated-Axl and Total Axl indicate the potential of the tested compound to inhibit Axl-phosphorylation at the given compound concentration.
Cell AXL Inhibition Assay Protocol
HEK293T cells (2.5×10^4/well) were plated in a 96 well plate and cells were transfected with pcDNA_DEST_40 Axl or pcDNA_DEST_40 by Superfact reagent (Qiagen. Co. Ltd.). After overnight, the transfection reagent of each well was removed from cells and replaced by fresh prewarmed medium. On the following day, cells were treated with the respective test compound which was diluted by the same method, as in the Axl binding assay using DMSO, for 1 hour
After incubation with the test compounds, cells in the well of the plate were lysed using Tris lysis buffer. The lysate was transferred to two plates (total-Axl and phosphor-Axl) Mesoscale high bind plates and incubated for two hours at room temperature. Afterwards the lysates were removed from the plates and the plates were blocked using Blocking buffer. Subsequently Total-Axl antibody (H-124, Santa Cruz) was transferred to one Mesoscale high bind plate, and Phospho-Axl antibody (AF2228, R&D) to the other plate. After 1 h incubation, Sulpho-Tag antibody (goat anti-rabbit, Mesoscale) was added and again incubated for 1 hour. For the measurement, 2×MSD read buffer was added to each well and the plates were analyzed with a Mesoscale Sector Imager 2400. IC50 (half the maximal inhibitory concentration) was determined relative to between the vehicle (DMSO) control group and minimum control group as transfection of the control vector (pcDNA_DEST_40).
The results after this assay are shown in table 3 for selected compounds.

Axl = target: T4, Axl (Homo sapiens, UniProt P30530); experiment: LanthaScreen Eu kinase binding assay, Axl; settings: Tracer 236
T4 construct: purchased Life Technologies
T4 sequence (P30530 26-894): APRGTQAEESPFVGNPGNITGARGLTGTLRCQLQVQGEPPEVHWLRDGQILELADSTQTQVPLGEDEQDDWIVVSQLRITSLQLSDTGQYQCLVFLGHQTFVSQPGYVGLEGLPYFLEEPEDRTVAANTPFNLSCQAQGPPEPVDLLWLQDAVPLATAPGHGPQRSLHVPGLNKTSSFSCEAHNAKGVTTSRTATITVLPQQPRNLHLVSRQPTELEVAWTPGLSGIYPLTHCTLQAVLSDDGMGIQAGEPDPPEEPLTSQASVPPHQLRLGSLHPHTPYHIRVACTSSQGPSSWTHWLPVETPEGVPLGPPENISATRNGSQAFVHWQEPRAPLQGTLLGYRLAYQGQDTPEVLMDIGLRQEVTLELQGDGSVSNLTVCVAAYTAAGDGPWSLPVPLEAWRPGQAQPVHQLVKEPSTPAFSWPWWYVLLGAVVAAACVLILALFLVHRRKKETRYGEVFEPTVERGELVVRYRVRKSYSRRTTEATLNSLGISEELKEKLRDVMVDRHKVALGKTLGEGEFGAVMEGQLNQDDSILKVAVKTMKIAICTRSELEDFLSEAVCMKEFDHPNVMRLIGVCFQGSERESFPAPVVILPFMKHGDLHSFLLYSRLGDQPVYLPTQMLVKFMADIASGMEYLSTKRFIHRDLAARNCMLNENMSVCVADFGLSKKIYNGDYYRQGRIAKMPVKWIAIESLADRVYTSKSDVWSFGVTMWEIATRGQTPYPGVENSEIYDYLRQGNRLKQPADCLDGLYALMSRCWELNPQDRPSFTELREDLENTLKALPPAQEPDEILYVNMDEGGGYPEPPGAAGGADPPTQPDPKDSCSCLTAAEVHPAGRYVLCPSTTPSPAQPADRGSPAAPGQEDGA

| SMILES | Kd (Mer) [nM] | Kd (TYRO3) [nM] | Kd (Met) [nM] | Kd (Axl) [nM] | IC50 [1] [nM] |
| --- | --- | --- | --- | --- | --- |
| C=C(C)c1ccncc1-n1cc(OCC)c(C(=O)Nc2ccc(Oc3ccnc4cc(OC)c(OC)cc34)cn2)n1 [Compound 202] | < 100 | < 100 | < 100 |  | < 100 |
| CCC(C)Oc1cc2nccc(Oc3ccc(NC(=O)c4c(OCC(F)(F)F)cnn4-c4cnc(N)nc4)nc3)c2cc1OC (stereo not shown) [Compound 238] | 100 to 1000 | ≥ 1000 | ≥ 1000 | ≥ 1000 |  |
| COCCOc1cnn(-c2cnc(N)nc2)c1C(=O)Nc1ccc(Oc2ccnc3cc(OC)c(OC)cc23)cn1 [Compound 245] | 100 to 1000 | ≥ 1000 | ≥ 1000 | ≥ 1000 |  |
| COc1cc2c(Oc3ccc(NC(=O)c4c(OCC(F)(F)F)cnn4-c4cnc(N)nc4)nc3)ccnc2cc1OC(C)C [Compound 256] | 100 to 1000 | ≥ 1000 | ≥ 1000 | 100 to 1000 |  |

The next lines start with results.

| Kd (Mer) [nM] | Kd (TYRO3) [nM] | Kd (Met) [nM] | Kd (Axl) [nM] | SMILES | IC50 [1] [nM] |
| --- | --- | --- | --- | --- | --- |
| 100 to 1000 | 100 to 1000 | 100 to 1000 | 100 to 1000 | COc1cc2nccc(Oc3ccc(NC(=O)c4nn(-c5ccc(F)cc5-c5ccccc5)cc4OCC4CC4)nc3)c2cc1OC [Compound 275] |  |
| < 100 | 100 to 1000 | < 100 | < 100 | COc1cc2nccc(Oc3ccc(NC(=O)c4nn(-c5ccc(F)cc5C)cc4OCCN(C)C)cc3F)c2cc1OC [Compound 276] |  |
| 100 to 1000 | < 100 | ≥ 1000 | ≥ 1000 | CCOc1nn(-c2ccc(F)cc2C)cc1C(=O)Nc1ccc(Oc2ccnc3cc(OC)c(OC)cc23)c(F)c1 [Compound 277] |  |
| < 100 | 100 to 1000 | 100 to 1000 | < 100 | COc1cc2nccc(Oc3ccc(NC(=O)c4nn(-c5ccc(F)c(Cl)c5)cc4OCC(F)(F)F)nc3)c2cc1OC [Compound 278] |  |
| < 100 | < 100 | < 100 | < 100 | COc1cc2nccc(Oc3ccc(NC(=O)c4nn(-c5cc(F)ccc5Cl)cc4OCC(F)(F)F)nc3)c2cc1OC [Compound 279] |  |
| < 100 | < 100 | < 100 | < 100 | COc1cc2nccc(Oc3ccc(NC(=O)c4nn(-c5ccc(F)c(C(C)=O)c5)cc4OCC(F)(F)F)nc3)c2cc1OC [Compound 280] |  |

Reference: patent publication US10934274B2, “Quinoline derivatives as TAM RTK inhibitors” (Qurient Co., Ltd., priority 2015, dated 2021)
